Measured values reported in patent US9637469B2, “Pyridine derivative” (Teijin Pharma Limited, priority 2012, dated 2017).
pIC50: −log10 of the molar value.

Molecular target: T1, human URAT1 (Homo sapiens, UniProt Q96S37)
T1 construct: Full-length cDNA of human URAT1 (hURAT1)
T1 sequence (Q96S37 1-553): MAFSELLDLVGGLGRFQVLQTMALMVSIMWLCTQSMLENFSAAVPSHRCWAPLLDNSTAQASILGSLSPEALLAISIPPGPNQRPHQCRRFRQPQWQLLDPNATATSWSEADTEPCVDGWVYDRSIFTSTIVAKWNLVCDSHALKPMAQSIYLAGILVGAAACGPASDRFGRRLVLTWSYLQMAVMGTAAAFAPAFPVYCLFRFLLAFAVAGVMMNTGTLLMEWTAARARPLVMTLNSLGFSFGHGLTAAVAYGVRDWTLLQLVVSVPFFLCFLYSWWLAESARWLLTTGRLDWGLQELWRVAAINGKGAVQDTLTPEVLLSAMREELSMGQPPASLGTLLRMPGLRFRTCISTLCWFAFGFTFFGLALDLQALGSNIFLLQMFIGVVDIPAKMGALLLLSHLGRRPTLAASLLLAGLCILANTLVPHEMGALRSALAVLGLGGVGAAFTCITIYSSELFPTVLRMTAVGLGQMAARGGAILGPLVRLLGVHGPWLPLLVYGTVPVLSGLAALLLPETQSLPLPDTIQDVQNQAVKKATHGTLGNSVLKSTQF
Assay: Test for inhibition of uric acid transport using human URAT1-expressing cells;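 further: three stars up to 0.2 µM two stars 0.2-2 µM one star 2-20 µM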
Format: cell-based
Details: HEK 293 cells expressing human URAT1; 14C-labeled uric acid 25 μM; uptake 37° C. for 5 min
Method: (1) Preparation of the Test Compound
The test compound was dissolved in DMSO (produced by Sigma) to a concentration of 20 mM and was subsequently used by diluting to desired concentrations.
(2) Test for Inhibition of Uric Acid Transport Using Human URAT1-Expressing Cells;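 further: three stars up to 0.2 µM two stars 0.2-2 µM one star 2-20 µM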
Full-length cDNA of human URAT1 (hURAT1) (produced by OriGene Technologies, Inc., NCBI Reference Sequence: NM 144585) was subcloned into an expression vector, pCMV6-Kan/Neo (produced by OriGene Technologies, Inc.), and hURAT1 gene was transfected into human embryonic kidney-derived cells (HEK 293 cells) by liposome method using Lipofectamine 2000 (produced by Invitrogen Corporation), whereupon HEK 293 cells expressing human URAT1 gene were screened by its Geneticin resistance. By a method similar to the following method, functional expression of human URAT1 gene was confirmed by using transport of ^14C-labeled uric acid into the cells as an index.
The HEK 293 cells expressing human URAT1 were seeded in a 24-well cell culture dish to a density of 3×10^5 cells/mL/well and were cultured in Dulbecco's modified Eagle's medium (D-MEM medium) containing 10% fetal bovine serum at 37° C. for 2 days. Thereafter, the following test for inhibition of uric acid transport was performed.
After the medium was removed by aspiration from each well, the medium was replaced with a solution obtained by substituting NaCl in Hank's Balanced Salt Solution (HBSS) with Na gluconate (hereinafter, HBSS/Na-gluconate) and the cells were preincubated at 37° C. for about 10 minutes. HBSS/Na-gluconate was removed by aspiration and a ^14C-uric acid solution that was warmed at 37° C. in advance containing various concentrations of the Example compound described in (1) and a radioactive ligand (^14C-labeled uric acid; final concentration 25 μM) was added and an uptake reaction was carried out by incubating at 37° C. for 5 min. After the incubation, ^14C-labeled uric acid solution was removed by aspiration and the cells were washed three times with ice-cold HBSS. The HEK 293 cells expressing human URAT1 were lysed in 0.2 mol/L aqueous NaOH (hereafter, the cell sample) and the cell samples were collected. The cell sample and a liquid scintillation liquid, ULTIMA GOLD (produced by PerkinElmer, Inc.) were mixed and the radioactivity was measured by a liquid scintillation counter (Beckman Coulter, Inc.).
The uric acid transport rate of the Example compound at each concentration (% of control uptake) was calculated relative to the radioactivity (radioactivity in human URAT1 expressing HEK 293 cells without addition of the Example compound (DMSO addition)) showing URAT1-specific uric acid transport as 100%, and the concentration (IC50) of the Example compound at which the uric acid transport rate is inhibited by 50% was determined. In addition, the symbols (*, **, and ***) in the table represent the following inhibitory activity values: • IC50≦_ 0.2 μM: *** • 0.2 μM<IC50≦2 μM: ** • 2 μM<IC50≦20 μM: *

| SMILES | Inhibitory Activity (IC50 of uric acid transport inhibition) |
| --- | --- |
| Cc1nc(-c2ccccn2)n(Cc2cc(Cl)ccc2Cl)c1C(=O)O [Compound A245, 1-(2,5-dichlorobenzyl)-4-methyl-2-(pyridin-2-yl)-1H-imidazole-5-carboxylic acid] | * * * |
| Cc1nc(-c2cccnc2)n(Cc2cc(C(F)(F)F)ccc2Cl)c1C(=O)O [Compound A43, 1-(2-chloro-5-(trifluoromethyl)benzyl)-4-methyl-2-(pyridin-3-yl)-1H-imidazole-5-carboxylic acid] | * * * |
| Cc1cncc(-c2ncc(C(=O)O)n2Cc2cc(Cl)ccc2Cl)c1 [Compound A206, 1-(2,5-dichlorobenzyl)-2-(5-methylpyridin-3-yl)-1H-imidazole-5-carboxylic acid] | * * * |
| O=C(O)c1ccc(-c2cccnc2)n1Cc1cccc2ccsc12 [Compound B20, 1-(benzo[b]thiophen-7-ylmethyl)-2-(pyridin-3-yl)-1H-pyrrole-5-carboxylic acid] | * * * |
| O=C(O)c1c(Cn2ccnc2)nc(-c2cncc(Cl)c2)n1Cc1cc(Cl)ccc1Cl [Compound A199, 4-((1H-imidazol-1-yl)methyl)-2-(5-chloropyridin-3-yl)-1-(2,5-dichlorobenzyl)-1H-imidazole-5-carboxylic acid] | * * |
| O=C(O)c1c(C2=CCCC2)nc(-c2cccnc2)n1Cc1cc(Cl)ccc1Cl [Compound A103, 4-(1-cyclopenten-1-yl)-1-(2,5-dichlorobenzyl)-2-(pyridin-3-yl)-1H-imidazole-5-carboxylic acid] | * * |
| COc1cccc(-c2nc(C)c(C(=O)O)n2Cc2cccc3ccccc23)n1 [Compound A240, 2-(6-methoxypyridin-2-yl)-4-methyl-1-(naphthalen-1-ylmethyl)-1H-imidazole-5-carboxylic acid] | * * |
| Cc1nc(-c2cccnc2)n(Cc2ccc(Cl)c(Cl)c2)c1C(=O)O [Compound A68, 1-(3,4-dichlorobenzyl)-4-methyl-2-(pyridin-3-yl)-1H-imidazole-5-carboxylic acid] | * * |
| CCS(=O)(=O)N1CCN(Cc2nc(-c3cncc(Cl)c3)n(Cc3cc(Cl)ccc3Cl)c2C(=O)O)CC1 [Compound A204, 2-(5-chloropyridin-3-yl)-1-(2,5-dichlorobenzyl)-4-((4-(ethylsulfonyl)piperazin-1-yl)methyl)-1H-imidazole-5-carboxylic acid] | * * * |
| CC(C)c1nc(-c2cccnc2)n(Cc2csc3ccccc23)c1C(=O)O [Compound A40, 1-(benzo[b]thiophen-3-ylmethyl)-4-isopropyl-2-(pyridin-3-yl)-1H-imidazole-5-carboxylic acid] | * * |
| Cc1ccc(Cn2c(-c3cccnc3)nc(C3CC3)c2C(=O)O)c2ccccc12 [Compound A18, 4-cyclopropyl-1-((4-methylnaphthalen-1-yl)methyl)-2-(pyridin-3-yl)-1H-imidazole-5-carboxylic acid] | * * * |
| C#Cc1nc(-c2cncc(Cl)c2)n(Cc2cc(Cl)ccc2Cl)c1C(=O)O [Compound A209, 2-(5-chloropyridin-3-yl)-1-(2,5-dichlorobenzyl)-4-ethynyl-1H-imidazole-5-carboxylic acid] | * * * |
| Cc1ccc(Cl)c(Cn2c(-c3cncc(Cl)c3)nc(C)c2C(=O)O)c1 [Compound A232, 1-(2-chloro-5-methylbenzyl)-2-(5-chloropyridin-3-yl)-4-methyl-1H-imidazole-5-carboxylic acid] | * * * |
| O=C(O)c1c(CN2CCOCC2)nc(-c2cncc(Cl)c2)n1Cc1cc(Cl)ccc1Cl [Compound A196, 2-(5-chloropyridin-3-yl)-1-(2,5-dichlorobenzyl)-4-(morpholinomethyl)-1H-imidazole-5-carboxylic acid] | * * * |
| Cc1ccc(-c2nc(C)c(C(=O)O)n2Cc2cc(Cl)ccc2Cl)cn1 [Compound A159, 1-(2,5-dichlorobenzyl)-4-methyl-2-(6-methylpyridin-3-yl)-1H-imidazole-5-carboxylic acid] | * * |
| O=C(NS(=O)(=O)C1CC1)c1ccc(-c2cncc(Cl)c2)n1Cc1cc(Cl)ccc1Cl [Compound B30, 2-(5-chloropyridin-3-yl)-N-(cyclopropylsulfonyl)-1-(2,5-dichlorobenzyl)-1H-pyrrole-5-carboxamide] | * * * |
| Cc1cncc(-c2ccc(/C=C/C(=O)O)n2Cc2cc(Cl)ccc2Cl)c1 [Compound B34, (E)-3-(1-(2,5-dichlorobenzyl)-2-(5-methylpyridin-3-yl)-1H-pyrrol-5-yl)acrylic acid] | * * * |
| CN1CCN(Cc2nc(-c3cncc(Cl)c3)n(Cc3cc(Cl)ccc3Cl)c2C(=O)O)CC1 [Compound A197, 2-(5-chloropyridin-3-yl)-1-(2,5-dichlorobenzyl)-4-((4-methylpiperazine-1-yl)methyl)-1H-imidazole-5-carboxylic acid] | * * * |
| Cc1nc(-c2cccnc2)n(Cc2ccc(C)c3ccccc23)c1C(=O)O [Compound A17, 4-methyl-1-((4-methylnaphthalen-1-yl)methyl)-2-(pyridin-3-yl)-1H-imidazole-5-carboxylic acid] | * * |

Same assay, conditions: HEK 293 cells expressing human URAT1; 14C-labeled uric acid 25 μM; uptake 37° C. for 5 min; read-out: Inhibitory Activity (IC50 of uric acid transport inhibition)

| SMILES | pIC50 |
| --- | --- |
| Cc1cccc2cccc(Cn3c(-c4cccnc4)nc(C(F)(F)F)c3C(=O)O)c12 [Compound A30] | 4.70 to 5.70 |
| Cc1nc(-c2cccnc2)n(Cc2ccc(F)cc2)c1C(=O)O [Compound A50] | 4.70 to 5.70 |
| Cc1nc(-c2cccnc2)n(Cc2ccc(F)cc2Cl)c1C(=O)O [Compound A73] | 4.70 to 5.70 |
| Cc1nc(-c2cccnc2)n(Cc2cccc(C#N)c2)c1C(=O)O [Compound A65] | 4.70 to 5.70 |
| Cc1ccccc1Cn1c(-c2cccnc2)nc(C)c1C(=O)O [Compound A57] | 4.70 to 5.70 |
| O=C(O)c1c(-c2ccncc2)nc(-c2cccnc2)n1Cc1cc(Cl)ccc1Cl [Compound A95] | 4.70 to 5.70 |
| Cc1nc(-c2cccnc2)n(Cc2ccc(Br)cc2)c1C(=O)O [Compound A56] | 4.70 to 5.70 |
| Cc1nc(-c2cccnc2)n(Cc2csc3cccc(C)c23)c1C(=O)O [Compound A5] | 4.70 to 5.70 |
| NCc1nc(-c2cncc(Cl)c2)n(Cc2cc(Cl)ccc2Cl)c1C(=O)O [Compound A201] | 4.70 to 5.70 |
| O=C(O)c1c(C(F)(F)F)nc(-c2cccnc2)n1Cc1cccc2cccc(Br)c12 [Compound A28] | 4.70 to 5.70 |
